The values below come from patent US6916905B2, “Dmt-Tic di-and tri-peptidic derivatives and related compositions and methods of use” (The United States of America as represented by the …, priority 2000, dated 2005).

The target in one data set is hMDR-1 (Homo sapiens, UniProt P08183). The data set can be described thus: Calcein AM assay for Pgp in hMDR-1 transfected G-185 fibroblasts (Example 49). The settings on record: for order of inhibition of hMDR-1: rank within amide series; for inhibition of hMDR-1 (Pgp), in words: calcein fluorescence. The procedure: Stably transfected G-185 fibroblasts containing hMDR-1 and NIH 3T3 cell lines were grown to confluent monolayers in DMEM containing 4.5 g glucose/1, 10% fetal calf serum, L-glutamine, penicillin (50 units/ml), streptomycin (50 μg/ml) and 1 mM sodium pyruvate in 5% CO2 at 37° C. G-185 cells were maintained in […] colchicine.
Chain of hMDR-1 (P08183 whole entry, the tested form may be a part): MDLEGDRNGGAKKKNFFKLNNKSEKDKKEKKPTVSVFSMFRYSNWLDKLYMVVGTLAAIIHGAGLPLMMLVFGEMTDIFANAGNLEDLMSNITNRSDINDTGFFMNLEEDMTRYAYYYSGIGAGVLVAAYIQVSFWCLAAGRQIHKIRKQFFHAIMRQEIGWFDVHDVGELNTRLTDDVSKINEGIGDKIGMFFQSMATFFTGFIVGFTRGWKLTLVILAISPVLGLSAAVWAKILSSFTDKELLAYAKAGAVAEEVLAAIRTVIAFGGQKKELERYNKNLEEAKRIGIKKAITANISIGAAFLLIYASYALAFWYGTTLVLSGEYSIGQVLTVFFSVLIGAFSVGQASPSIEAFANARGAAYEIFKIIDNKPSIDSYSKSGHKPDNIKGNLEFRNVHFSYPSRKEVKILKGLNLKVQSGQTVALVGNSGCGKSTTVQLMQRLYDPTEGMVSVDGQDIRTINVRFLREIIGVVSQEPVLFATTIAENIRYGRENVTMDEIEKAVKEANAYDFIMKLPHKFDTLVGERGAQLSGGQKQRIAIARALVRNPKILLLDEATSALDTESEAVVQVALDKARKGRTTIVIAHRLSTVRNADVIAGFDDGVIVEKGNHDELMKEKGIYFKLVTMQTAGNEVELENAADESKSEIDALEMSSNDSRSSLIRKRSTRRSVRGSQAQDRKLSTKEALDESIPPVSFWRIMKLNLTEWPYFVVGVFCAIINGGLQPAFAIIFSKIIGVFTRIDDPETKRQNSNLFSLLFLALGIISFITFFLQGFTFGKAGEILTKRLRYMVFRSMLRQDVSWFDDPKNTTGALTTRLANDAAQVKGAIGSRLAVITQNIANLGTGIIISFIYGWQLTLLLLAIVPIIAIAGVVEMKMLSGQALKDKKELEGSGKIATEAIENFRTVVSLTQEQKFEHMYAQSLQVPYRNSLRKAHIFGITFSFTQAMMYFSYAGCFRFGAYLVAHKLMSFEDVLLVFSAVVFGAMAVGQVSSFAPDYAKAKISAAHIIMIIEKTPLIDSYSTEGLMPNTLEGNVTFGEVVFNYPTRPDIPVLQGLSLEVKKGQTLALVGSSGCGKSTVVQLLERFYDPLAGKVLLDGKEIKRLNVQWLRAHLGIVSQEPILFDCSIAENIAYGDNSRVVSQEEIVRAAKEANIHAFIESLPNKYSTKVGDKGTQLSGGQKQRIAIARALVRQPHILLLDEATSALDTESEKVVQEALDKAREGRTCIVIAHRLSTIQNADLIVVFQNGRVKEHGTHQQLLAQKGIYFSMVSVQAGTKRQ
The assay for Pgp is based on the diffusion of non-fluorescent calcein AM across the cell membrane. Calcein AM is then hydrolyzed and accumulates as the fluorescent calcein. In transfected cells expressing excess hMDR-1, Pgp extrudes calcein AM from the cell before hydrolysis occurs; inhibition of hMDR-1 results in the accumulation of intracellular calcein. Transfected G-185 cells and the NIH 3T3 cells were analyzed in triplicate using seven graded dosages of verapamil or the opioid peptides in 96-well plates. Cells (2.5×10^6/well) were incubated in 100 μl culture medium for 15 min at 37° C. and 50 μl of 1 μM calcein AM in PBS, plus 50 μl of verapamil or one of the present inventive compounds in PBS, or 100 μl of PBS alone (control) were added. Cells were mixed and incubated for 15 min at 37° C., then centrifuged for 5 min at 2,000×g, and then washed three times in 200 μl PBS. Cell pellets were resuspended in 200 μl PBS and transferred to white Microfluor Plates (Nunc, Copenhagen, Denmark) in order to measure calcein-specific fluorescence (494 nm absorption; 517 nm emission). Internal controls were carried out with each experiment using verapamil and PBS in order to compare the consistency between cell preparations. Means±SE (error bars) were determined and plotted using Prism™ (GraphPad, San Diego, Calif.).

Data set [1] addresses T1, δ-opioid receptors (Rattus norvegicus, UniProt P33533).
T1 construct: assayed with a rat brain synaptosomal preparation (P2); from tissue; host or cells: rat brain P2 synaptosomes
Nature of the data set: Rat brain synaptosome (P2) binding, δ antagonist [3H]N,N(CH3)2-Dmt-Tic-OH (Example 47).
Method: (§2) Briefly, the agonists [^3H]DPDPE (30-60 Ci/mmol, NEN-DuPont) and [^3H]DAGO (30-60 Ci/mmol, Amersham) were used to label δ and μ sites, respectively, under saturation binding conditions (2 hrs at 22° C.). Excess unlabeled peptide (2 μM) established non-specific binding levels and the labeled membranes were rapidly filtered on Whatman GF/C glass fibre filters, thoroughly washed, dried and measured for radioactivity using CytoScint (ICN, Irvine, Calif.). […] The affinity constants (Ki) were calculated according to Cheng and Prusoff (Biochem. Pharmacol. 22: 3099-3108 (1973)).

Data set [2] deals with T1, δ-opioid receptors. The data set can be described thus: Rat brain synaptosome (P2) binding, agonist [3H]DPDPE (Example 47).
Method: as §2
In a further data set the target is μ receptors (Cavia porcellus, UniProt P97266). The data set can be described thus: Guinea pig ileum (GPI) functional bioassay (Example 48). The conditions noted are these: for GPI Ke: μ antagonism. The procedure:
(§1) The functional bioactivity of the present inventive compounds was assessed using standard functional bioassays of δ and μ activity in MVD and GPI (Salvadori et al. (1995), supra; and Salvadori et al., J. Med. Chem. 36: 3748-3756 (1993)). […] Dose-response curves were obtained (Salvadori et al. (1995), supra) for both tissues. […] Data were derived from at least four independent tissue samples and dose-response curves from which the pA2 values were determined (Salvadori et al. (1997), supra) according to Arunlakshana and Schild (Br. J. Pharmacol. 14: 48-58 (1959)).

The target in another data set is T2, μ-opioid receptors (Rattus norvegicus, UniProt P33535).
T2 construct: assayed with a rat brain synaptosomal preparation (P2); from tissue; host or cells: rat brain P2 synaptosomes
T2 sequence (P33535 whole entry): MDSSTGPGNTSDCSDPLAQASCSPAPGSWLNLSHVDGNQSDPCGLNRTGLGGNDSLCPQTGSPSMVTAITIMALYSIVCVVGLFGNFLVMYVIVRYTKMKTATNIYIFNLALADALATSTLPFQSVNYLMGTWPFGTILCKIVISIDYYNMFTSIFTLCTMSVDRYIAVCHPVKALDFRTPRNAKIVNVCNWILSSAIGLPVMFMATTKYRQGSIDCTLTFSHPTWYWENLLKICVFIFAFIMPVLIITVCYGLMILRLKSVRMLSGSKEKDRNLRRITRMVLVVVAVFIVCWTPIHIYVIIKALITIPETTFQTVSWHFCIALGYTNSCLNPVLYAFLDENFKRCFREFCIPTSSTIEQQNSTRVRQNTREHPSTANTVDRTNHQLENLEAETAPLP
The data set can be described thus: Rat brain synaptosome (P2) binding, [3H]DAGO (Example 47).

The target of another data set is δ receptors (Mus musculus, UniProt P32300). Here is the method: as §1
Chain of δ receptors (P32300 whole entry): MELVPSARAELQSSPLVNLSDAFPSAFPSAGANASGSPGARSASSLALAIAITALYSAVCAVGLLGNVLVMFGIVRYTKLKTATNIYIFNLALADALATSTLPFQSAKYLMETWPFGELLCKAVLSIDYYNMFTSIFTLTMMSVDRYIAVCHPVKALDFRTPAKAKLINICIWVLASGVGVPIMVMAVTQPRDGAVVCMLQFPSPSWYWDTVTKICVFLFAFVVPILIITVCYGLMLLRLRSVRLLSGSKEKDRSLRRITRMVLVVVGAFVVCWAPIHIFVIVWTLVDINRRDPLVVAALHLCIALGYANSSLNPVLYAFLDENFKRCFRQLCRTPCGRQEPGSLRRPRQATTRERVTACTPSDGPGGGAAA
[3] abbreviates: rat brain synaptosomes (P2), mean ± SEM, n in parentheses, read-out: Kiμ (nM) [^3H]DAGO.
[4] abbreviates: MVD pA2 (range), δ antagonism against deltorphin C, mean (range).
[5] abbreviates: δ antagonism, Ke = antilog of pA2.

Like-named read-outs stand apart in the source and are kept apart here. Non-standard residues stand in square brackets, D forms with d. Residues, ends and D or L forms follow the SMILES beside them. *: point of attachment. Dmt = Cc1cc(O)cc(C)c1C[C@H](N)C(=O)O; Tic = O=C(O)[C@@H]1Cc2ccccc2CN1; NHtBu = CC(C)(C)N*

Chain of μ receptors (P97266 whole entry, looked up): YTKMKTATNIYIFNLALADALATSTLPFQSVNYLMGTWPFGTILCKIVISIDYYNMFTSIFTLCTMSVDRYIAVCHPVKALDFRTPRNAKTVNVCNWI
T1 sequence (P33533 whole entry): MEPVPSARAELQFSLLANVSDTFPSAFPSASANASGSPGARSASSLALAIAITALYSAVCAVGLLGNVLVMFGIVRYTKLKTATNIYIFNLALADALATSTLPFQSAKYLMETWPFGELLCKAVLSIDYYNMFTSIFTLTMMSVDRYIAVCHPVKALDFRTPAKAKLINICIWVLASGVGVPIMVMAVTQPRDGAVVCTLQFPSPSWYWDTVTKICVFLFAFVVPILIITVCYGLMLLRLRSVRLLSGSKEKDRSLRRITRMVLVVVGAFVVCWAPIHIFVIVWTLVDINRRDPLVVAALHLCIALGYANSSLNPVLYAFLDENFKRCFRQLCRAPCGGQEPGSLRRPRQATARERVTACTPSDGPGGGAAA

Turning to `COc1ccc(CCN(C)CCCC(C#N)(c2ccc(OC)c(OC)c2)C(C)C)cc1OC` (stereo not shown) [verapamil], the maximum effective dose at hMDR-1 is 75 to 100 µM.

A word on the EC50: it is the midpoint of the concentration-response curve. As to `Cc1cc(O)cc(C)c1C[C@H](N)C(=O)N1Cc2ccccc2C[C@H]1C(=O)N[C@@H](C)C(=O)NC(C)(C)C` [Compound 20, H-Dmt-Tic-Ala-NH-tBu] (H-[Dmt]-[Tic]-Ala-NHtBu; N-terminus and C-terminus assumed), the Ki worked out at 0.08 ± 0.02 nM on δ-opioid receptors [1] (rat brain synaptosomes (P2), δ antagonist radioligand, mean ± SEM, n in parentheses, read-out: Kiδ(nM) [^3H]N,N(CH3)2-Dmt-Tic-OH); 0.066 ± 0.01 nM at δ-opioid receptors [2] (rat brain synaptosomes (P2), mean ± SEM, n in parentheses, read-out: Kiδ(nM) [^3H]DPDPE); 4.03 ± 0.21 nM on μ-opioid receptors (setting [3]). Besides, the “Antagonist K1μ/Kiδ” value at δ-opioid receptors [1] (selectivity, Kiδ from antagonist radioligand [3H]N,N(CH3)2-Dmt-Tic-OH) is on record as 48. Besides, at hMDR-1, the “order of inhibition of hMDR-1” value is “(compound 20)>H-Dmt-Tic-NH-tBu (compound 9)”. In addition, at δ-opioid receptors [2] (selectivity, Kiδ from agonist radioligand [3H]DPDPE), the “Agonist K1μ/Kiδ” value stood at 61. The EC50 on μ receptors is greater than 10000 nM. For the same compound, the Kb at μ receptors is 174 nM; on δ receptors (setting [4]) it was 0.692 nM. For the same compound, the “GPI Ke” value on μ receptors is 0.17 µM. In addition, the “bioactivity on MVD (δ), in words” value at δ receptors is given as “highest δ-antagonist functional bioactivities”. Also, the “MVD Ke” value on δ receptors (setting [5]) is recorded as 0.69 nM.

With `C[C@@H](NC(=O)[C@@H](N)Cc1ccc(O)cc1)C(=O)N[C@@H](Cc1ccccc1)C(=O)N[C@@H](Cc1c[nH]c2ccccc12)C(=O)N[C@@H](Cc1ccc(O)cc1)C(=O)N1CCC[C@H]1C(=O)N[C@@H](CCCCN)C(=O)O` [[Trp^4,Lys-OH^7]DER, H-Tyr-D-Ala-Phe-Trp-Tyr-Pro-Lys-OH] (H-Y[dA]FWYPK-OH), the “inhibition of hMDR-1 (Pgp), in words” value at hMDR-1 was “inactive”.

Consider `Oc1ccc2c3c1O[C@H]1c4[nH]c5ccccc5c4C[C@@]4(O)[C@@H](C2)N(CC2CC2)CC[C@]314` [naltrindole], for which the “inhibition of hMDR-1 (Pgp), in words” value at hMDR-1 was “inhibition that dissipated at high concentrations”.

Broadly, the IC50 is the midpoint of a concentration-inhibition curve. Lower therefore signals greater potency. For `C[C@@H](NC(=O)[C@@H](N)Cc1ccc(O)cc1)C(=O)N[C@@H](Cc1ccccc1)C(=O)NCC(=O)N[C@@H](Cc1ccc(O)cc1)C(=O)N1CCC[C@H]1C(=O)N[C@@H](CO)C(N)=O` [Dermorphin, H-Tyr-D-Ala-Phe-Gly-Tyr-Pro-Ser-NH2], the “inhibition of hMDR-1 (Pgp), in words” value is “lack of inhibition” at hMDR-1 and “inactive” on hMDR-1 (listed as DER). This compound also returned an IC50 against μ receptors of 1.82 nM.

Turning to deltorphin, at hMDR-1, the “inhibition of hMDR-1 (Pgp), in words” value is “lack of inhibition”.

Regarding `Cc1cc(O)cc(C)c1C[C@H](N)C(=O)N1Cc2ccccc2C[C@H]1C(=O)N[C@@H](C)C(=O)NC12CC3CC(CC(C3)C1)C2` [Compound 21, H-Dmt-Tic-Ala-NH-1-adamantane], the “order of inhibition of hMDR-1” value at hMDR-1 was “(compound 21)>>N,N(Me)2-Dmt-Tic-OH (inactive)”. The compound also gave an EC50 at μ receptors of 1000 nM. This compound also registered a Ki on μ-opioid receptors of 2.52 ± 0.56 nM. On δ receptors, the “bioactivity on MVD (δ), in words” value is “highest δ-antagonist functional bioactivities”. On δ receptors (setting [4]), the Kb is 0.513 nM. For the same compound, the “MVD Ke” value at δ receptors (setting [5]) is on record as 0.51 nM.

With `Cc1cc(O)cc(C)c1C[C@@H](C(=O)N1Cc2ccccc2C[C@H]1C(=O)NC(C)(C)C)N(C)C` [Compound 14, N,N(Me)2-Dmt-Tic-NH-tBu], on hMDR-1, the “order of inhibition of hMDR-1” value is listed as “(compound 14)>H-Dmt-Tic-Ala-NH-tBu (compound 20)”. Moreover, on μ receptors, the EC50 was greater than 10000 nM; the Kb is 300 nM; the “bioactivity on GPI (μ), in words” value is reported as “weak μ antagonism”. Moreover, the Ki at μ-opioid receptors (setting [3]) came out at 226 ± 21 nM. Moreover, the “bioactivity on MVD (δ), in words” value at δ receptors is “modest δ antagonism”. Also, the Kb on δ receptors (setting [4]) was 14.1 nM. The “MVD Ke” value on δ receptors (setting [5]) is reported as 14.1 nM.

For the compound `CNC(=O)[C@@H]1Cc2ccccc2CN1C(=O)[C@@H](N)Cc1c(C)cc(O)cc1C` [Compound 7, H-Dmt-Tic-NHMe] (H-[Dmt]-[Tic]-NHMe), the “inhibition of hMDR-1 (Pgp), in words” value on hMDR-1 was “inactive”. For the same compound, on μ receptors, the EC50 is greater than 10000 nM; the Kb is 1150 nM; the “bioactivity on GPI (μ), in words” value is reported as “low μ antagonism”; the “GPI Ke” value came out at 1.15 µM. At μ-opioid receptors (setting [3]), the Ki came out at 85.5 ± 7.7 nM. On δ receptors, the EC50 was found to be 21200 nM and the “bioactivity on MVD (δ), in words” value was “extraordinarily weak δ agonism”. The same compound had a Kb on δ receptors (MVD Ke(nM), δ antagonism, Ke = antilog of pA2) greater than 10000 nM. The “MVD pA2 (range)” value on δ receptors (δ antagonism against deltorphin C, mean (range)) was “—^d”.
